From patent US20230322846A9, “NEUROACTIVE STEROIDS AND THEIR METHODS OF USE” (SAGE THERAPEUTICS, INC., priority 2018, published 2023)

Each compound was assayed against [35S]-TBPS binding, rat brain cortical membranes (assay: Steroid inhibition of [35S]-TBPS binding). Conditions: 3 nM [35S]-TBPS, in the presence of 5 mM GABA.
How it was run: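 Rat cortical P2 membranes incubated 90 min at room temperature with 3 nM [35S]-TBPS, […] and test compound (0.5% DMSO final) in NaCl/Na–K phosphate pH 7.4; nonspecific binding with […]. Filter-bound radioactivity counted; IC50 and Imax from nonlinear fits, mean ± SEM.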
With `CC[C@@]1(O)CC[C@@]2(C)[C@H](CC[C@@H]3[C@@H]2CC[C@]2(C)[C@@H]([C@H](C)Cn4nccc4C#N)CC[C@@H]32)C1` [Example 64, 1-((S)-2-((3R,5R,8R,9S,10S,13S,14S,17R)-3-ethyl-3-hydroxy-10,13-dimethylhexadecahydro-1H-cyclopenta[a]phenanthren-17-yl)propyl)-1H-pyrazole-5-carbonitrile] the IC50 was < 100 nM. `CCCC[C@@]1(O)CC[C@H]2[C@H](CC[C@@H]3[C@@H]2CC[C@]2(C)[C@@H]([C@H](C)Cn4cc(C#N)cn4)CC[C@@H]32)C1` [Example 312] was tested, and the IC50 was < 100 nM. In the case of `CCOC[C@@]1(O)CC[C@@]2(C)[C@H](CC[C@@H]3[C@@H]2CC[C@]2(C)[C@@H]([C@@H](C)N(C)S(=O)(=O)c4ccc(C#N)cn4)CC[C@@H]32)C1` [Example 78, 5-cyano-N—((R)-1-((3R,5R,8R,9S,10S,13S,14S,17S)-3-(ethoxymethyl)-3-hydroxy-10,13-dimethylhexadecahydro-1H-cyclopenta[a]phenanthren-17-yl)ethyl)-N-methylpyridine-2-sulfonamide], the IC50 is reported as < 100 nM. With `C[C@@H](NC(=O)c1cccnc1)[C@H]1CC[C@H]2[C@@H]3CC[C@@H]4C[C@](C)(O)CC[C@@H]4[C@H]3CC[C@]12C` [Example 29, N—((R)-1-((3R,5R,8R,9R,10S,13S,14S,17S)-3-hydroxy-3,13-dimethylhexadecahydro-1H-cyclopenta[a]phenanthren-17-yl)ethyl)nicotinamide] the IC50 was 100 to 1000 nM. With `CCC[C@@]1(O)CC[C@H]2[C@H](CC[C@@H]3[C@@H]2CC[C@]2(C)[C@@H]([C@H](C)Cc4ccc(C(F)(F)F)nc4)CC[C@@H]32)C1` [Example 411] the IC50 was < 100 nM. With `C[C@H](Cn1cc(C#N)cn1)[C@H]1CC[C@H]2[C@@H]3CC[C@@H]4C[C@](C)(O)CC[C@@H]4[C@H]3CC[C@]12C` [Example 52, 1-((S)-2-((3R,5R,8R,9R,10S,13S,14S,17R)-3-hydroxy-3,13-dimethylhexadecahydro-1H-cyclopenta[a]phenanthren-17-yl)propyl)-1H-pyrazole-4-carbonitrile] the IC50 was < 100 nM. `CC[C@@]1(O)CC[C@H]2[C@@H](CC[C@@H]3[C@@H]2CC[C@]2(C)[C@@H]([C@H](C)Cn4nnnc4C)CC[C@@H]32)C1` [Example 336, (3R,5S,8R,9R,10S,13S,14S,17R)-3-ethyl-13-methyl-17-((S)-1-(5-methyl-1H-tetrazol-1-yl)propan-2-yl)hexadecahydro-1H-cyclopenta[a]phenanthren-3-ol] was tested, and the IC50 was ≥ 10000 nM. In the case of `CCOC[C@@]1(O)CC[C@H]2[C@H](CC[C@@H]3[C@@H]2CC[C@]2(C)[C@@H]([C@@H](C)N(C)S(=O)(=O)c4ccc(C#N)cc4)CC[C@@H]32)C1` [Example 68, 4-cyano-N—((R)-1-((3R,5R,8R,9R,10S,13S,14S,17S)-3-(ethoxymethyl)-3-hydroxy-13-methylhexadecahydro-1H-cyclopenta[a]phenanthren-17-yl)ethyl)-N-methylbenzenesulfonamide], the IC50 is reported as < 100 nM. Compound `C[C@H](N[C@@H](C)[C@H]1CC[C@H]2[C@@H]3CC[C@@H]4C[C@](C)(O)CC[C@@H]4[C@H]3CC[C@]12C)c1ccccc1` [Example 210] has an IC50 of 1000 to 10000 nM. For `CCC[C@@]1(O)CC[C@H]2[C@H](CC[C@@H]3[C@@H]2CC[C@]2(C)[C@@H]([C@@H](C)Cn4nnnc4C)CC[C@@H]32)C1` [Example 324, (3R,5R,8R,9R,10S,13S,14S,17R)-13-methyl-17-(1-(5-methyl-1H-tetrazol-1-yl)propan-2-yl)-3-propylhexadecahydro-1H-cyclopenta[a]phenanthren-3-ol], the IC50 was < 100 nM.
